Assay results published in paper PMC4388847, “Machine Learning Assisted Design of Highly Active Peptides for Drug Discovery” (PLoS Computational Biology, 2015).
Read-outs that look alike come from different tables or passages of the source. Peptide text beside a SMILES is read from it.

Experiments:
[1] = system: Escherichia coli K12 MG1655; type: cell-based
Protocol: (§1) To further validate the approach, a number of antimicrobial peptides identified during the in silico validation were synthesized. Their antimicrobial activity against Escherichia coli and Staphylococcus aureus were measured in a growth inhibitory assay. Details on the synthesis and assay are given in the supplementary material (see S1 Text). The peptides were obtained using h CAMP, the same predictor used during the previous validation. […]
(§2) Escherichia coli K12 MG1655 and Staphylococcus aureus 68 (HER1049) were obtained from the F´elix d’H´erelle Reference Center for Bacterial Viruses of Universit´e Laval (http://www.phage.ulaval.ca). Both strains were grown in Trypticase soy broth with agitation at 37◦C. The minimal inhibitory concentration assay was performed as described in [2] and broth microdilution protocol performed in 96-well plates.
(§3) The bacterial strains were grown overnight at 37◦C with aeration and diluted to a ﬁnal concentration of 5× 10^5 cfu/ml in the assay. The peptides were diluted in sterile water and were tested at the following concentrations: 0, 1, 2, 4, 8, 16 and 32µg/ml. The optical density (600nm) was followed every 30 minutes for 24 hours with a Synergy 2 plate reader (BioTek Instruments, Inc.). […]
(§4) 2.Wiegand I, Hilpert K, Hancock RE (2008) Agar and broth dilution methods to determine the minimal inhibitory concentration (mic) of antimicrobial substances. Nature protocols 3: 163–175.

[2] = system: Staphylococcus aureus 68 (HER1049); type: cell-based
Protocol: as §1, §2, §3, §4

[3] = system: bradykinin potentiation; conditions: BPPs training set value; cited from earlier work
Description: On the BPPs dataset, the proposed approach predicted that the pentapeptide IEWAK should have an activity of 2.195, slightly less than the best peptide of the training set (VEWAK, 2.73, predicted as 2.192). However, the predicted activity of IEWAK is much better than the average peptide activity of the dataset, which is 0.71. One may ask why IEWAK has a lower predicted biological activity than VEWAK, which was part of the training data. It is common for machine learning algorithms to sacrifice accuracy on the training data to prevent overfitting. Despite this small discrepancy, the model is ver ...

[4] = stated in words as the cause of the weak activity
Description: We used the proposed approach with the predictor h CAMP to generate a list of K = 1,000 peptide candidates with the highest predicted activity. From this list, we greedily selected three peptides such that they all differed by at least 4 amino acids from each others. This was done to maximize the chemical diversity among them. We then tested these peptides (Peptides #2, #3, #4) in a growth inhibitory assay. […] In a second series, we ensured that a filter for water solubility was employed.

[5] = system: 24 bacteria such as Escherichia coli, Bacteroïdes fragilis, and Staphylococcus aureus; conditions: average potency over 24 bacteria; CAMPs training set value; cited from earlier work
Description: We observe a smooth power law with only a few peptides having outstanding biological activity, as expected.

[6] = E. coli K12 MG1655, broth microdilution in 96-well plates, 5×10^5 cfu/ml, peptides in sterile water tested at 0, 1, 2, 4, 8, 16 and 32 µg/ml, OD 600 nm every 30 minutes for 24 hours, 37 °C
[7] = S. aureus 68 (HER1049), broth microdilution in 96-well plates, 5×10^5 cfu/ml, peptides in sterile water tested at 0, 1, 2, 4, 8, 16 and 32 µg/ml, OD 600 nm every 30 minutes for 24 hours, 37 °C

Compound | MIC (μg/ml) >E. coli ([1]; K12, 24 h) [µg/mL] | MIC (μg/ml) S. aureus ([2]; 68 (HER1049, 24 h)) [µg/mL] | MIC (μg/ml) >E. coli [1, 6] [µg/mL] | MIC (μg/ml) S. aureus [2, 7] [µg/mL] | further results
CC[C@H](C)[C@H](NC(=O)[C@H](CCCNC(=N)N)NC(=O)[C@H](CCCNC(=N)N)NC(=O)[C@H](CC(C)C)NC(=O)[C@H](CCCCN)NC(=O)[C@H](CCCCN)NC(=O)[C@H](Cc1c[nH]c2ccccc12)NC(=O)[C@H](CCCCN)NC(=O)[C@H](CCCCN)NC(=O)[C@H](Cc1c[nH]c2ccccc12)NC(=O)[C@@H](N)Cc1ccc(O)cc1)C(=O)N[C@@H](Cc1ccccc1)C(=O)N[C@@H](CCSC)C(=O)N[C@@H](CC(C)C)C(=O)N[C@H](C(N)=O)C(C)C [Peptide 1] (H-YWKKWKKLRRIFMLV-NH2; N-terminus assumed) | 2 | 8 | – | – | –
VEWAK | – | – | – | – | bioactivity (logarithm of the relative activity index compared to the peptide VESSK) [3]: 2.73
CC[C@H](C)[C@H](NC(=O)[C@H](CCCNC(=N)N)NC(=O)[C@H](CCCCN)NC(=O)[C@H](Cc1c[nH]c2ccccc12)NC(=O)[C@H](CCCNC(=N)N)NC(=O)[C@H](CCCCN)NC(=O)[C@H](Cc1c[nH]c2ccccc12)NC(=O)[C@@H](N)Cc1c[nH]c2ccccc12)C(=O)N[C@@H](CCCNC(=N)N)C(=O)N[C@@H](CCCNC(=N)N)C(=O)N[C@H](C(=O)N[C@@H](Cc1ccccc1)C(=O)N[C@@H](CCSC)C(=O)N[C@@H](CCSC)C(=O)N[C@H](C(N)=O)C(C)C)[C@@H](C)CC [Peptide 3] (H-WWKRWKRIRRIFMMV-NH2; N-terminus assumed) | 4 | 8 | – | – | –
CC[C@H](C)[C@H](NC(=O)CNC(=O)[C@H](CC(C)C)NC(=O)[C@H](Cc1ccccc1)NC(=O)[C@H](CC(C)C)NC(=O)[C@H](CCCCN)NC(=O)[C@H](Cc1c[nH]c2ccccc12)NC(=O)[C@@H](N)CCCCN)C(=O)N[C@@H](CC(C)C)C(=O)N[C@@H](C)C(=O)N[C@H](C(=O)N[C@@H](CC(C)C)C(=O)N[C@@H](CCCCN)C(=O)N[C@H](C(=O)N[C@@H](CC(C)C)C(N)=O)C(C)C)C(C)C [Peptide 7, reference compound] (H-KWKLFLGILAVLKVL-NH2; N-terminus assumed) | – | – | > 32 | > 32 | –
CC[C@H](C)[C@H](NC(=O)CNC(=O)[C@H](CCCCN)NC(=O)[C@H](Cc1ccccc1)NC(=O)[C@H](CC(C)C)NC(=O)[C@H](CCCCN)NC(=O)[C@H](Cc1c[nH]c2ccccc12)NC(=O)[C@@H](N)CCCCN)C(=O)N[C@@H](CCCNC(=N)N)C(=O)N[C@@H](C)C(=O)N[C@H](C(=O)N[C@@H](CC(C)C)C(=O)N[C@@H](CCCCN)C(=O)N[C@H](C(=O)N[C@@H](CC(C)C)C(N)=O)C(C)C)C(C)C [Peptide 5, reference compound] (H-KWKLFKGIRAVLKVL-NH2; N-terminus assumed) | – | – | 4 | 8 | –
CC(C)C[C@H](NC(=O)[C@H](CCCNC(=N)N)NC(=O)[C@H](CCCCN)NC(=O)[C@H](Cc1c[nH]c2ccccc12)NC(=O)[C@H](Cc1c[nH]c2ccccc12)NC(=O)[C@H](CCCCN)NC(=O)[C@H](Cc1c[nH]c2ccccc12)NC(=O)[C@@H](N)Cc1c[nH]c2ccccc12)C(=O)N[C@@H](CCCNC(=N)N)C(=O)N[C@@H](CCCNC(=N)N)C(=O)N[C@@H](CC(C)C)C(=O)N[C@@H](Cc1ccccc1)C(=O)N[C@@H](CC(C)C)C(=O)N[C@@H](CC(C)C)C(=O)N[C@H](C(N)=O)C(C)C [Peptide 4] (H-WWKWWKRLRRLFLLV-NH2; N-terminus assumed) | 16 | 16 | – | – | water solubility [4]: poor
CC[C@H](C)[C@H](NC(=O)[C@H](CC(C)C)NC(=O)[C@H](CCCNC(=N)N)NC(=O)[C@H](Cc1c[nH]c2ccccc12)NC(=O)CN)C(=O)N[C@@H](CCCCN)C(=O)N[C@@H](CCCCN)C(=O)N[C@H](C(=O)N[C@@H](CC(C)C)C(=O)N[C@@H](CCCNC(=N)N)C(=O)N[C@H](C(=O)N[C@@H](Cc1ccccc1)C(=O)N[C@@H](CCCCN)C(=O)NCC(=O)N[C@@H](CC(C)C)C(N)=O)C(C)C)[C@@H](C)CC [Peptide 6, reference compound] (H-GWRLIKKILRVFKGL-NH2; N-terminus assumed) | – | – | 4 | 4 | antibacterial activity (logarithm of bactericidal potency) [5]: 0.824
CC[C@H](C)[C@H](NC(=O)[C@H](CCCNC(=N)N)NC(=O)[C@H](CCCNC(=N)N)NC(=O)[C@H](CC(C)C)NC(=O)[C@H](CCCCN)NC(=O)[C@H](CCCCN)NC(=O)[C@H](Cc1c[nH]c2ccccc12)NC(=O)[C@H](CCCNC(=N)N)NC(=O)[C@H](CCCCN)NC(=O)[C@H](Cc1c[nH]c2ccccc12)NC(=O)[C@@H](N)Cc1c[nH]c2ccccc12)C(=O)N[C@@H](Cc1ccccc1)C(=O)N[C@@H](CC(C)C)C(=O)N[C@@H](CCSC)C(=O)N[C@@H](CC(C)C)C(N)=O [Peptide 2] (H-WWKRWKKLRRIFLML-NH2; N-terminus assumed) | 4 | 4 | – | – | –
